Data: patent US20250019503A1, “METAL COMPLEXED CYANURATE GERMICIDAL ADDITIVE FOR POLYMER COMPOSITIONS” (SABIC Global Technologies B.V., priority 2022, published 2025)

O=c1[n-]c(=O)n(Cl)c(=O)n1Cl.O=c1[n-]c(=O)n(Cl)c(=O)n1Cl.O=c1[n-]c(=O)n(Cl)c(=O)n1Cl.O=c1[n-]c(=O)n(Cl)c(=O)n1Cl.[Cu+2].[Na+].[Na+] [CuDCC, Copper Dichlorocyanurate]
hygroscopicity (based on lack of mass loss between 55° C. to 133° C.): not hydroscopic

O=c1nc([O-])n(Cl)c(=O)n1Cl.[Na+] [NaDCC, sodium dichlorocyanurate]
most extensive mass loss (at 240° C. to 300° C., attributed to pyrolysis/oxidations): ~40%
mass loss (between 55° C. to 100° C., nitrogen and air, attributed to absorbed water): around 7%
